From ChEMBL document CHEMBL6114975, “Discovery of 2,4-quinazolinedione derivatives as LC3B recruiters in the facilitation of protein complex degradations” (Eur J Med Chem, 2025)

Target: Cyclin-dependent kinase 9 (Homo sapiens) (UniProt P50750)
Details: dose 100.0 nM
Description: Inhibition of CDK9 (unknown origin) at 100 nM relative to control

Chain of Cyclin-dependent kinase 9 (Homo sapiens) (P50750 whole entry): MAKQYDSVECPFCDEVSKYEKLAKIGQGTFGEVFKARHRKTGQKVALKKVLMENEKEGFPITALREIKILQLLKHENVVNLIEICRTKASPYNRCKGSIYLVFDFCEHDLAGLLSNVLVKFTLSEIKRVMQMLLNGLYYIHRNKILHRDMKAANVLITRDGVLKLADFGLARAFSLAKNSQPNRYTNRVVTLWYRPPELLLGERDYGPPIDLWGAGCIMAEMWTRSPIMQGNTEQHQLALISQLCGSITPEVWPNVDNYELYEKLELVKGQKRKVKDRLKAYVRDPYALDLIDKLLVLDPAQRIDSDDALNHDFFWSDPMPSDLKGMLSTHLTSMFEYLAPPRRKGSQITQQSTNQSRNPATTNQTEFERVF

`CC(C)(C)c1cnc(CSc2cnc(NC(=O)C3CCN(CCCn4c(=O)n(Cc5ccccc5)c(=O)c5cccnc54)CC3)s2)o1` was tested. Which inhibition did it give?
Its inhibition is 84%.

Which inhibition does the source give for `CC(C)(C)c1cnc(CSc2cnc(NC(=O)C3CCNCC3)s2)o1` [BMS-387032] here?
Its inhibition is 83%.

`CC(C)(C)c1cnc(CSc2cnc(NC(=O)C3CCN(CC(=O)NCCOCCOCCOCCNc4cccc5c4C(=O)N(C4CCC(=O)NC4=O)C5=O)CC3)s2)o1` (stereo not given) was tested. Which inhibition did it give?
The inhibition was 13%.

`CCn1c(=O)c2cccnc2n(CCCN2CCC(C(=O)Nc3ncc(SCc4ncc(C(C)(C)C)o4)s3)CC2)c1=O` was tested. Which inhibition did it give?
Its inhibition is 83%.

With `CC(C)(C)c1cnc(CSc2cnc(NC(=O)C3CCN(CCCn4c(=O)n(Cc5ccncc5)c(=O)c5ccc(Cl)cc54)CC3)s2)o1` as the compound, how does the inhibition read?
The inhibition was 85%.

With `CC(C)(C)c1cnc(CSc2cnc(NC(=O)C3CCN(CCCn4c(=O)n(Cc5ccncc5)c(=O)c5cccnc54)CC3)s2)o1` as the compound, how does the inhibition read?
The inhibition was 88%.

`CCn1c(=O)c2ccc(Cl)cc2n(CCCN2CCC(C(=O)Nc3ncc(SCc4ncc(C(C)(C)C)o4)s3)CC2)c1=O` was tested. Which inhibition did it give?
The inhibition was 82%.

System: WSUDLCL2
Experiment: Antiproliferative activity against human WSUDLCL2 cells
Details: not given

With `CC(C)(C)c1cnc(CSc2cnc(NC(=O)C3CCN(CCCn4c(=O)n(Cc5ccccc5)c(=O)c5cccnc54)CC3)s2)o1` as the compound, how does the IC50 read?
The IC50 was 326 nM.

For `CC(C)(C)c1cnc(CSc2cnc(NC(=O)C3CCNCC3)s2)o1` [BMS-387032], which IC50 is on record?
The IC50 was 201 nM.

`CC(C)(C)c1cnc(CSc2cnc(NC(=O)C3CCN(CC(=O)NCCOCCOCCOCCNc4cccc5c4C(=O)N(C4CCC(=O)NC4=O)C5=O)CC3)s2)o1` (stereo not given) was tested. Which IC50 did it give?
Its IC50 is 310 nM.

How did the IC50 turn out when `CCn1c(=O)c2cccnc2n(CCCN2CCC(C(=O)Nc3ncc(SCc4ncc(C(C)(C)C)o4)s3)CC2)c1=O` was run?
The IC50 was 39 nM.

For `CC(C)(C)c1cnc(CSc2cnc(NC(=O)C3CCN(CCCn4c(=O)n(Cc5ccncc5)c(=O)c5ccc(Cl)cc54)CC3)s2)o1`, which IC50 is on record?
The IC50 was 82 nM.

With `CC(C)(C)c1cnc(CSc2cnc(NC(=O)C3CCN(CCCn4c(=O)n(Cc5ccncc5)c(=O)c5cccnc54)CC3)s2)o1` as the compound, how does the IC50 read?
Its IC50 is 13 nM.

Which IC50 does the source give for `CCn1c(=O)c2ccc(Cl)cc2n(CCCN2CCC(C(=O)Nc3ncc(SCc4ncc(C(C)(C)C)o4)s3)CC2)c1=O` here?
Its IC50 is 332 nM.

Target: Cyclin-dependent kinase 9 (Homo sapiens) (UniProt P50750)
Details: dose 10.0 nM
Description: Inhibition of CDK9 (unknown origin) at 10 nM relative to control

Which inhibition does the source give for `CC(C)(C)c1cnc(CSc2cnc(NC(=O)C3CCN(CCCn4c(=O)n(Cc5ccccc5)c(=O)c5cccnc54)CC3)s2)o1` here?
Its inhibition is 19%.

With `CC(C)(C)c1cnc(CSc2cnc(NC(=O)C3CCNCC3)s2)o1` [BMS-387032] as the compound, how does the inhibition read?
The inhibition was 22%.

Which inhibition does the source give for `CCn1c(=O)c2cccnc2n(CCCN2CCC(C(=O)Nc3ncc(SCc4ncc(C(C)(C)C)o4)s3)CC2)c1=O` here?
Its inhibition is 27%.

With `CC(C)(C)c1cnc(CSc2cnc(NC(=O)C3CCN(CCCn4c(=O)n(Cc5ccncc5)c(=O)c5ccc(Cl)cc54)CC3)s2)o1` as the compound, how does the inhibition read?
The inhibition was 13%.

How did the inhibition turn out when `CC(C)(C)c1cnc(CSc2cnc(NC(=O)C3CCN(CCCn4c(=O)n(Cc5ccncc5)c(=O)c5cccnc54)CC3)s2)o1` was run?
Its inhibition is 30%.

How did the inhibition turn out when `CCn1c(=O)c2ccc(Cl)cc2n(CCCN2CCC(C(=O)Nc3ncc(SCc4ncc(C(C)(C)C)o4)s3)CC2)c1=O` was run?
The inhibition was -2%.
